According to ChEMBL document CHEMBL1142734, “Biological properties of D- and L-1-deoxyazasugars” (J Med Chem, 2005):

Target: T1, Alpha-galactosidase C (Aspergillus niger, UniProt Q9UUZ4)
T1 sequence (Q9UUZ4 whole entry): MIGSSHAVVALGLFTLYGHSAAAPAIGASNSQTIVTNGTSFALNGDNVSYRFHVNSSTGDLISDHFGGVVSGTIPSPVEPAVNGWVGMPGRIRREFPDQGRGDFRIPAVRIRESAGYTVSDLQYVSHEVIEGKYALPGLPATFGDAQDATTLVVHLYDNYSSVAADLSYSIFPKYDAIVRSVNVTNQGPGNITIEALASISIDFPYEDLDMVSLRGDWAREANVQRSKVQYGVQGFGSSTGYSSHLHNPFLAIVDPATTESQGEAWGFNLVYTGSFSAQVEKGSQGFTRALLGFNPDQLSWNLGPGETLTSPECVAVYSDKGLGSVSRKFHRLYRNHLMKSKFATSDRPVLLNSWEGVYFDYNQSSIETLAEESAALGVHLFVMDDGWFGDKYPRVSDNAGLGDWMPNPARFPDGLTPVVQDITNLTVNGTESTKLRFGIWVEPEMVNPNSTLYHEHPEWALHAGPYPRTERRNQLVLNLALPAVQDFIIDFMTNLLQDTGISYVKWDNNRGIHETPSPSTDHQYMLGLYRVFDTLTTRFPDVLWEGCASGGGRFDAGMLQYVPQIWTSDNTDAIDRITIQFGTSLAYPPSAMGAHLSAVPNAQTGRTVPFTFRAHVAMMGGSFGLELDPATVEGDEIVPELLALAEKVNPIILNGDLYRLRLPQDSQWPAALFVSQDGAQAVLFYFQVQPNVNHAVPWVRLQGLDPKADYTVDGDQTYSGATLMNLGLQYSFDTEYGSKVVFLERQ
Assay: Inhibitory concentration against alpha-galactosidase of Aspergillus niger

IC50: 1.8 µM
SMILES: OC[C@H]1NC[C@H](O)[C@@H](O)[C@H]1O
